Results: patent publication US11046690B2, “Pyridazinones and methods of use thereof” (Goldfinch Bio, Inc., priority 2018, dated 2021)

Columns and labels:
TRPC5 = target: T1, TRPC5 (Homo sapiens, UniProt Q9UL62); assay: TRPC5 activity assay (FLIPR calcium fluorescence, Riluzole stimulation); format: cell-based; details: HEK-TREx hTRPC5 cells, 30 μM Riluzole stimulation; read-out: TRPC5 (IC50 class)
T1 construct: expressed in transfected cells
T1 sequence (Q9UL62 1-973): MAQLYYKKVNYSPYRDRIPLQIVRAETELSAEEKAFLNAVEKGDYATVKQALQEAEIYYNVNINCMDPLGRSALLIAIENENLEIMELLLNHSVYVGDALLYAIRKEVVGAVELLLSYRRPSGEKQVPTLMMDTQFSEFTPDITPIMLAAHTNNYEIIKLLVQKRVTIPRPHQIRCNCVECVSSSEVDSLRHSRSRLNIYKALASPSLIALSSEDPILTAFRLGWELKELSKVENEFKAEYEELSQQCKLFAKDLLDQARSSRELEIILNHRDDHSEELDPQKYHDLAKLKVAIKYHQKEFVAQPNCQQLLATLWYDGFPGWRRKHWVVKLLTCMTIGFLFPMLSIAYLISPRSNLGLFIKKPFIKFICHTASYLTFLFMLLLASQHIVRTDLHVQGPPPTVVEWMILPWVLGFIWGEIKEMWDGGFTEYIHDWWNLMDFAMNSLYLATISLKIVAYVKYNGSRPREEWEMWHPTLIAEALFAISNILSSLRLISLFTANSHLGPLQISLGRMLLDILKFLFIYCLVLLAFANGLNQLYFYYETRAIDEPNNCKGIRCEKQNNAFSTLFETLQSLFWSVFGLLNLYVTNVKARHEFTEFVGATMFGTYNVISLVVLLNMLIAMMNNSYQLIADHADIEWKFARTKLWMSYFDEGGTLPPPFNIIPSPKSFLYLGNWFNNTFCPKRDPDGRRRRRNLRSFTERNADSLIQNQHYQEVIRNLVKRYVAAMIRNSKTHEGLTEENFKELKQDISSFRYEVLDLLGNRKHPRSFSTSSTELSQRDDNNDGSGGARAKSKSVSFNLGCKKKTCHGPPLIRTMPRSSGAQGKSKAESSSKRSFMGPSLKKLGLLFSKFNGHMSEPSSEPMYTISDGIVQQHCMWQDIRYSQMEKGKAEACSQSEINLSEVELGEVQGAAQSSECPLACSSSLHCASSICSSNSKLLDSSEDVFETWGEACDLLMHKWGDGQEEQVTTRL
Protocol: ICLN-1633 cells (HEK-TREx hTRPC5) expressing TRPC5 were generated as follows. Commercially available HekTrex-293 cells were seeded at 0.7×10^6 cells/well in a 1×6-well plate 24 hrs prior to transfection using 2 mL cell growth media containing no antibiotics (1× DMEM/high glucose (Hyclone #SH30022.02); 10% fetal bovine serum (Sigma) 2 mM sodium pyruvate, 10 mM HEPES). […] On day 2, 2 μg of plasmid DNA plus 6 μl of Xtreme-GENE HP reagent in Optimem (200 μl total volume) was prepared and incubated for 15 min at room temperature. This plasmid solution was then gently overlayed dropwise onto each well and the plate was gently swirled to mix complex with the media for approximately 30 seconds. Transfected cells were incubated at 37° C. in a 10%/CO2 incubator for 24 hrs. The transfected cells were harvested and transferred into 2×150 mm dishes containing cell growth media with no antibiotics at 37° C.
The next day selection was initiated to generate a stable pool by adding cell growth media containing 150 μg/mL Hygromycin and 5 μg/mL Blasticidin and cells were allowed to grow. Media with the selection agent was changed every 1-2 days as needed to remove dead cells. After 7 days, the hygromycin concentration was reduced to 75 μg/mL and cells growth was allowed to continue.
Single clones were selected as follows. The stable pool was diluted to 10 cells/mL and seeded (100 μl/well) into 24×96 well plates (˜1 cell/well) and allowed to grow for 7 days in cell growth media. Fresh media (100 μl) was added and the cells allowed to grow for another 1-2 weeks and then stored frozen or used immediately.
10-point dose response curves were generated using the Echo-550 acoustic dispenser. Compound source plates were made by serially diluting compound stocks to create 10 mM, 1 mM, and 0.1 mM solutions in DMSO into Echo certified LDV plates. The Echo then serially spotted 100%/DMSO stock solutions into source dose response plates to generate a 4-fold dilution scheme. 100%0/DMSO was added to the spotted dose response plates to bring the final volume to 5 μl. 300 nl of the dose response stock plate was then spotted into pre-incubation and stimulation assay plates. 50 μl of pre-incubation buffer and 100 μl of stimulation buffer was then added to the plates resulting in a final assay test concentration range of 30 μM to 0.0001 μM with a final DMSO concentration of 0.3%.
Human ICLN-1633 cells expressing were plated onto 384 well, black PDL-coated microplates and maintained in TRPC5 growth media the day prior to use for experiments. TRPC5 expression was induced by the application of 1 μg/mL tetracycline at the time of plating. […] Cells are incubated at room temperature, protected from light, for 60-90 minutes. After the incubation period, the dye is removed and replaced with 10 μl of EBSS. Cell, pre-incubation and stimulation plates are loaded onto the FLIPR-II and the assay is initiated. The FLIPR measures a 10 second baseline and then adds 10 μl of 2X compounds (or controls). Changes in fluorescence are monitored for an additional 5 minutes. After the 5 minute pre-incubation, 20 μl of 2X Riluzole (with 1X compound or controls) is added to the cell plate. The final Riluzole stimulation concentration in the assay is 30 μM. After the Riluzole addition, changes in fluorescence are monitored for an additional 5 minutes.
Compound modulation of TRPC5 calcium response was determined as follows. After the Englerin A, fluorescence was monitored for a 5-minute period. The maximum relative fluorescence response (minus the control response of 1 μM of an internal control compound known to maximally block TRPC5 calcium response, the “REF INHIB” in the formula below) was captured and exported from the FLIPR.
Compound effect is calculated as % inhibition using the following formula:
[formula] wherein “RFU” is the relative fluorescent units.

[1] = test system: PAN induced glomerular kidney injury; assay: Puromycin aminonucleoside (PAN)-induced glomerular injury in rats; format: in vivo, Sprague-Dawley rats; details: PAN-injured rats
From the text: The objective of this study is to evaluate the dose-dependent effects of compound 100 on PAN induced glomerular kidney injury as indexed by albuminuria. Eighty (80), male Sprague-Dawley rats weighing approximately 125-150 g and approximately 5-6 weeks of age were acquired from Charles River. They were fed a standard chow diet (Harlan 8640), housed under standard conditions, and allowed to acclimate for at least 5 days prior to study inception. On D-2, rats were placed into weight-matched treatment groups and were placed, individually housed, into metabolic cages for the balance of the study. A 24 hour baseline (Day 0) urine was collected followed by a baseline blood collection via conscious tail venous puncture. Rats were then administered vehicle or test article. Two (2) hours following administration of vehicle or test agent on Day 0, rats received an administration of (5 ml/kg, s.c.) vehicle (sterile saline) or puromycin aminonucleoside (PAN; challenge agent; 75 mg/kg) dissolved in vehicle. Intermittent (Day 4, 7 and 10) 24 hour urine volumes were determined and samples (4 samples/animal/time point; 0.5 ml/sample) were obtained. Additionally, intermittent (Day 4, 7 and 10) blood samples were collected via conscious tail venous puncture 2 hours±1 minute post-AM dose. Immediately following the last blood collection, rats were anesthetized with isoflurane, tissues harvested, and animals sacrificed. Endpoint kidney weights and indices were obtained. Urine samples were immediately flash-frozen in liquid N2 and stored at −80° C. until analyzed. Whole blood samples collected on K3EDTA were processed appropriately for the production of plasma for PK measurements.

[2] = test system: AT1R transgenic rat model of FSGS; assay: AT1R transgenic rat model of FSGS; format: in vivo; details: AT1R transgenic rats, UniNX and AngII infusion, orally once daily 3 mg/kg or 10 mg/kg, up to 3 weeks
Protocol: The AT1R transgenic rat model of FSGS is characterized by podocyte-specific expression of human AT1R. […] See Zhou et al., Science (2017), vol. 358 (6368), 1332-1336. In the present study, pathophysiology in AT1R transgenic rats was accelerated with unilateral nephrectomy (UniNX) and minipump AngII infusion. Compound 100 was dosed orally once daily at 3 mg/kg or 10 mg/kg, and the urine protein creatinine ratio was determined at -1, 0, 1, 2, and 3 weeks of treatment. […] UniNX, AngII […], and compound 100 […] occurred at the time points indicated.

SMILES | IC50 (TRPC5) | further results
CC1Cc2c(ncnc2Oc2ccc(F)cc2Cl)CN1c1cn[nH]c(=O)c1Cl (single isomer, unassigned) [Compound 117a] | > 1000 nM | 
CC(c1ccc(F)cc1C(F)(F)F)c1ncnc2c1CCN(c1cn[nH]c(=O)c1Cl)C2 (single isomer, unassigned) [Compound 126a] | 50 to 500 nM | 
O=c1[nH]ncc(N2CCc3c(nc([C@@H](O)CO)nc3Oc3ccc(F)cc3C(F)(F)F)C2)c1Cl (single isomer, unassigned) [Compound 135] | < 50 nM | 
O=c1[nH]ncc(N2CCc3c(nc([C@H](O)CO)nc3Oc3ccc(F)cc3C(F)(F)F)C2)c1Cl (single isomer, unassigned) [Compound 137] | < 50 nM | 
O=c1[nH]ncc(N2CCc3c(ncnc3Oc3ccc(F)cc3C(F)(F)F)C2)c1Cl [Compound 100, 4-chloro-5-[4-[4-fluoro-2-(trifluoromethyl)phenoxy]-5H,6H,7H,8H-pyrido[3,4-d]pyrimidin-7-yl]-2,3-dihydropyridazin-3-one] |  | urinary albumin excretion ([1]; 30 mg/kg once daily (QD), at 10 days): Significant reductions; urinary albumin excretion ([1]; 30 mg/kg twice daily (BID), at 7 and 10 days): Significant reductions; urine protein creatinine ratio [2]: efficacious
NC(=O)c1ncn([C@@H]2O[C@H](CO)[C@@H](O)[C@H]2O)c1O [Mizoribine, reference compound] |  | albuminuria ([1]; positive control compound): efficacious in reducing albuminuria

Second part, led by results:

IC50 (TRPC5) | SMILES | further results
< 50 nM | CC(c1ccc(F)cc1C(F)(F)F)c1ncnc2c1CCN(c1cn[nH]c(=O)c1Cl)C2 (single isomer, unassigned) [Compound 126, 4-Chloro-5-[4-[(1 S)-1-[4-fluoro-2-(trifluoromethyl)phenyl]ethyl]-5H,6H,7H,8H-pyrido[3,4-d]pyrimidin-7-yl]-2,3-dihydropyridazin-3-one] | 
< 50 nM | CC(O)c1nc2c(c(Oc3ccc(F)cc3C(F)(F)F)n1)CCN(c1cn[nH]c(=O)c1Cl)C2 (single isomer, unassigned) [Compound 129, 4-Chloro-5-[4-[4-fluoro-2-(trifluoromethyl)phenoxy]-2-[(1 S)-1-hydroxyethyl]-5H,6H,7H,8H-pyrido[3,4-d]pyrimidin-7-yl]-2,3-dihydropyridazin-3-one] | 
< 50 nM | CC(O)c1nc2c(c(Oc3ccc(F)cc3C(F)(F)F)n1)CCN(c1cn[nH]c(=O)c1Cl)C2 (single isomer, unassigned) [Compound 130] | 
